Measurements from patent publication US11739070B2, “C5A receptor modulators” (IDORSIA PHARMACEUTICALS LTD, priority 2018, dated 2023).

molecular target: T1, C5AR1 (Homo sapiens, UniProt P21730); test: hC5a DISCO IC50 assay (PathHunter beta-arrestin, antagonist mode); assay type: cell-based; settings: CHO-K1 C5AR1 beta-arrestin cell line; antagonist vs 1-10 nM C5a agonist; geometric mean values; read-out: C5aR IC50
T1 construct: host or cells: CHO-K1
T1 sequence (P21730 1-350): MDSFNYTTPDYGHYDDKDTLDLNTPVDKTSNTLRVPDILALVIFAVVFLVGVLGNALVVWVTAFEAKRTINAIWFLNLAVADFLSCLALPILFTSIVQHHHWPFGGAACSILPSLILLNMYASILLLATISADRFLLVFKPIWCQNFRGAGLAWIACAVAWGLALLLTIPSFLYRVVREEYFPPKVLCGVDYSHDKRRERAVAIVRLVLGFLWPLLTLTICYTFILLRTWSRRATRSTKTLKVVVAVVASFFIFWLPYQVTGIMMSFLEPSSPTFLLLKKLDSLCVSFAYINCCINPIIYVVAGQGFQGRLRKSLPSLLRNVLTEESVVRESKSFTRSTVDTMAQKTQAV
Summary of the method: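 Antagonist added first, then 1-10 nM C5a agonist; cells incubated 1.5 h at 37 °C. Beta-arrestin signal developed with PathHunter detection reagent, 45 min at RT. IC50 in nmol/l from serial antagonist dilutions, reported as geometric mean of several measurements.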

Going from `COc1cccc2c1n(Cc1ccccc1C(F)(F)F)c(=O)n2[C@@H]1CCN(c2c(F)cccc2C#CCN2CCOCC2)C1` [Example 159, 1-{(R)-1-[2-Fluoro-6-(3-morpholin-4-yl-prop-1-ynyl)-phenyl]-pyrrolidin-3-yl}-4-methoxy-3-(2-trifluoromethyl-benzyl)-1,3-dihydro-benzoimidazol-2-one] to `COc1cccc2c1n(Cc1ccccc1C(F)(F)F)c(=O)n2[C@@H]1CCN(c2c(F)cccc2CCCN2CCOCC2)C1` [Example 162, 1-{(R)-1-[2-Fluoro-6-(3-morpholin-4-yl-propyl)-phenyl]-pyrrolidin-3-yl}-4-methoxy-3-(2-trifluoromethyl-benzyl)-1,3-dihydro-benzoimidazol-2-one], the IC50 rises from 73 nM to 135 nM (1.8-fold). The first is the more potent here.

Compared with `COc1cccc2c1n(Cc1ccccc1C(F)(F)F)c(=O)n2[C@@H]1CCN(c2ccccc2F)C1` [Example 160, 1-[(R)-1-(2-Fluoro-phenyl)-pyrrolidin-3-yl]-4-methoxy-3-(2-trifluoromethyl-benzyl)-1,3-dihydro-benzoimidazol-2-one], `COc1cccc2c1n(Cc1ccccc1C(F)(F)F)c(=O)n2[C@@H]1CCN(c2c(F)cccc2N2CCOCC2)C1` [Example 161, 1-[(R)-1-(2-Fluoro-6-morpholin-4-yl-phenyl)-pyrrolidin-3-yl]-4-methoxy-3-(2-trifluoromethyl-benzyl)-1,3-dihydro-benzoimidazol-2-one] is 2-fold higher in IC50: 35 nM for the first, 69 nM for the second. The first is the more potent here.

Going from `COc1cccc2c1n(Cc1ccccc1C(F)(F)F)c(=O)n2[C@@H]1CCN(c2c(F)cccc2C(C)N2CC(OC)C2)C1` (stereo partly drawn) [Example 163, 1-((R)-1-{2-Fluoro-6-[1-(3-methoxy-azetidin-1-yl)-ethyl]-phenyl}-pyrrolidin-3-yl)-4-methoxy-3-(2-trifluoromethyl-benzyl)-1,3-dihydro-benzoimidazol-2-one] to `COc1cccc2c1n(Cc1ccccc1C(F)(F)F)c(=O)n2C1CCCN(c2c(C)cccc2F)CC1` (stereo not shown) [Example 184, 1-[1-(2-Fluoro-6-methyl-phenyl)-azepan-4-yl]-4-methoxy-3-(2-trifluoromethyl-benzyl)-1,3-dihydro-benzoimidazol-2-one], the IC50 falls from 591 nM to 36 nM (16-fold).

`CCOC(=O)C1CN(C(=O)OC(C)(C)C)CCC1n1c(=O)n(Cc2ccccc2C(F)(F)F)c2c(OC)cccc21` (stereo not shown) [Example 164, 4-[4-Methoxy-2-oxo-3-(2-trifluoromethyl-benzyl)-2,3-dihydro-benzoimidazol-1-yl]-piperidine-1,3-dicarboxylic acid 1-tert-butyl ester 3-ethyl ester] and `COc1cccc2c1n(Cc1ccccc1C(F)(F)F)c(=O)n2C1CCCN(C(=O)OC(C)(C)C)CC1` (stereo not shown) [Example 179, 4-[4-Methoxy-2-oxo-3-(2-trifluoromethyl-benzyl)-2,3-dihydro-benzoimidazol-1-yl]-azepane-1-carboxylic acid tert-butyl ester] are within 1.5-fold of each other in IC50: 179 nM for the first, 122 nM for the second.

Compared with `COc1cccc2c1n(Cc1ccccc1OC(C)C)c(=O)n2[C@@H]1CCN(c2c(C)cccc2F)C1` [Example 165, 1-[(R)-1-(2-Fluoro-6-methyl-phenyl)-pyrrolidin-3-yl]-3-(2-isopropoxy-benzyl)-4-methoxy-1,3-dihydro-benzoimidazol-2-one], `COc1cccc2c1n(Cc1ccccc1OC(C)C)c(=O)n2C1CCN(c2c(C)cccc2F)CC1` [Example 166, 1-[1-(2-Fluoro-6-methyl-phenyl)-piperidin-4-yl]-3-(2-isopropoxy-benzyl)-4-methoxy-1,3-dihydro-benzoimidazol-2-one] is 2.8-fold higher in IC50: 6 nM for the first, 17 nM for the second.

First: COc1cccc2c1n(Cc1nccnc1C(F)(F)F)c(=O)n2[C@@H]1CCN(c2c(C)cccc2F)C1 [Example 167, 1-[(R)-1-(2-Fluoro-6-methyl-phenyl)-pyrrolidin-3-yl]-4-methoxy-3-(3-trifluoromethyl-pyrazin-2-ylmethyl)-1,3-dihydro-benzoimidazol-2-one]
Second: COc1cccc2c1n(Cc1nccnc1C(F)(F)F)c(=O)n2C1CCN(c2c(C)cccc2F)CC1 [Example 168, 1-[1-(2-Fluoro-6-methyl-phenyl)-piperidin-4-yl]-4-methoxy-3-(3-trifluoromethyl-pyrazin-2-ylmethyl)-1,3-dihydro-benzoimidazol-2-one]
The IC50 of the first is 1.7-fold lower: 6 nM for the first, 10 nM for the second. The first is the more potent here.

Compared with `COc1nccnc1Cn1c(=O)n([C@@H]2CCN(c3c(C)cccc3F)C2)c2cccc(OC)c21` [Example 169, 1-[(R)-1-(2-Fluoro-6-methyl-phenyl)-pyrrolidin-3-yl]-4-methoxy-3-(3-methoxy-pyrazin-2-ylmethyl)-1,3-dihydro-benzoimidazol-2-one], `COc1nccnc1Cn1c(=O)n(C2CCN(c3c(C)cccc3F)CC2)c2cccc(OC)c21` [Example 170, 1-[1-(2-Fluoro-6-methyl-phenyl)-piperidin-4-yl]-4-methoxy-3-(3-methoxy-pyrazin-2-ylmethyl)-1,3-dihydro-benzoimidazol-2-one] is 2.6-fold higher in IC50: 17 nM for the first, 45 nM for the second.

`COc1cc(C)nc2c1n(Cc1ccccc1C(F)(F)F)c(=O)n2[C@@H]1CCN(c2c(C)cccc2F)C1` [Example 171, 3-[(R)-1-(2-Fluoro-6-methyl-phenyl)-pyrrolidin-3-yl]-7-methoxy-5-methyl-1-(2-trifluoromethyl-benzyl)-1,3-dihydro-imidazo[4,5-b]pyridin-2-one] and `COc1cccc2c1n(Cc1cncnc1C(F)(F)F)c(=O)n2[C@@H]1CCN(c2c(C)cccc2F)C1` [Example 176, 1-[(R)-1-(2-Fluoro-6-methyl-phenyl)-pyrrolidin-3-yl]-4-methoxy-3-(4-trifluoromethyl-pyrimidin-5-ylmethyl)-1,3-dihydro-benzoimidazol-2-one] are within 1.5-fold of each other in IC50: 64 nM for the first, 48 nM for the second.

Compared with `COc1cccc2c1n(Cc1nnc(Cl)cc1OC(C)C)c(=O)n2[C@@H]1CCN(c2c(C)cccc2F)C1` [Example 172, 3-(6-Chloro-4-isopropoxy-pyridazin-3-ylmethyl)-1-[(R)-1-(2-fluoro-6-methyl-phenyl)-pyrrolidin-3-yl]-4-methoxy-1,3-dihydro-benzoimidazol-2-one], `COc1cccc2c1n(Cc1nnccc1OC(C)C)c(=O)n2[C@@H]1CCN(c2c(C)cccc2F)C1` [Example 173, 1-[(R)-1-(2-Fluoro-6-methyl-phenyl)-pyrrolidin-3-yl]-3-(4-isopropoxy-pyridazin-3-ylmethyl)-4-methoxy-1,3-dihydro-benzoimidazol-2-one] is 2.6-fold lower in IC50: 275 nM for the first, 107 nM for the second. The second is the more potent here.

First: COc1cccc2c1n(Cc1nnccc1C)c(=O)n2[C@@H]1CCN(c2c(C)cccc2F)C1 [Example 174, 1-[(R)-1-(2-Fluoro-6-methyl-phenyl)-pyrrolidin-3-yl]-4-methoxy-3-(4-methyl-pyridazin-3-ylmethyl)-1,3-dihydro-benzoimidazol-2-one]
Second: COc1cccc2c1n(Cc1nccnc1OC(C)C)c(=O)n2[C@@H]1CCN(c2c(C)cccc2F)C1 [Example 177, 1-[(R)-1-(2-Fluoro-6-methyl-phenyl)-pyrrolidin-3-yl]-3-(3-isopropoxy-pyrazin-2-ylmethyl)-4-methoxy-1,3-dihydro-benzoimidazol-2-one]
The IC50 of the first is 23-fold higher: 544 nM for the first, 24 nM for the second. The second is the more potent here.

First: COc1ncncc1Cn1c(=O)n([C@@H]2CCN(c3c(C)cccc3F)C2)c2cccc(OC)c21 [Example 175, 1-[(R)-1-(2-Fluoro-6-methyl-phenyl)-pyrrolidin-3-yl]-4-methoxy-3-(4-methoxy-pyrimidin-5-ylmethyl)-1,3-dihydro-benzoimidazol-2-one]
Second: COc1cccc2c1n(Cc1cncnc1C(C)C)c(=O)n2[C@@H]1CCN(c2c(C)cccc2F)C1 [Example 186, 1-[(R)-1-(2-Fluoro-6-methyl-phenyl)-pyrrolidin-3-yl]-3-(4-isopropyl-pyrimidin-5-ylmethyl)-4-methoxy-1,3-dihydro-benzoimidazol-2-one]
The IC50 of the first is 16-fold higher: 221 nM for the first, 14 nM for the second.

First: COc1cccc2c1n(Cc1nccnc1OC(C)C)c(=O)n2C1CCN(c2c(C)cccc2F)CC1 [Example 178, 1-[1-(2-Fluoro-6-methyl-phenyl)-piperidin-4-yl]-3-(3-isopropoxy-pyrazin-2-ylmethyl)-4-methoxy-1,3-dihydro-benzoimidazol-2-one]
Second: COc1cccc2c1n(Cc1ncccc1OC(C)C)c(=O)n2C1CCN(c2c(C)cccc2F)CC1 [Example 183, 1-[1-(2-Fluoro-6-methyl-phenyl)-piperidin-4-yl]-3-(3-isopropoxy-pyridin-2-ylmethyl)-4-methoxy-1,3-dihydro-benzoimidazol-2-one]
The IC50 of the first is 3.5-fold higher: 49 nM for the first, 14 nM for the second.

First: COc1cccc2c1n(Cc1cnccc1C(C)C)c(=O)n2[C@@H]1CCN(c2c(C)cccc2F)C1 [Example 180, 1-[(R)-1-(2-Fluoro-6-methyl-phenyl)-pyrrolidin-3-yl]-3-(4-isopropyl-pyridin-3-ylmethyl)-4-methoxy-1,3-dihydro-benzoimidazol-2-one]
Second: COc1cccc2c1n(Cc1cnccc1C(C)C)c(=O)n2C1CCN(c2c(C)cccc2F)CC1 [Example 181, 1-[1-(2-Fluoro-6-methyl-phenyl)-piperidin-4-yl]-3-(4-isopropyl-pyridin-3-ylmethyl)-4-methoxy-1,3-dihydro-benzoimidazol-2-one]
The IC50 of the first is 2.4-fold lower: 9 nM for the first, 22 nM for the second. The first is the more potent here.

Going from `COc1cccc2c1n(Cc1ncccc1OC(C)C)c(=O)n2[C@@H]1CCN(c2c(C)cccc2F)C1` [Example 182, 1-[(R)-1-(2-Fluoro-6-methyl-phenyl)-pyrrolidin-3-yl]-3-(3-isopropoxy-pyridin-2-ylmethyl)-4-methoxy-1,3-dihydro-benzoimidazol-2-one] to `COc1cccc2c1n(Cc1ccccc1C(F)(F)F)c(=O)n2C1CCCN(c2c(C)cccc2C)CC1` (stereo not shown) [Example 185, 1-[1-(2,6-Dimethyl-phenyl)-azepan-4-yl]-4-methoxy-3-(2-trifluoromethyl-benzyl)-1,3-dihydro-benzoimidazol-2-one], the IC50 rises from 9 nM to 36 nM (4-fold). The first is the more potent here.
